Assay results: PubChem BioAssay AID330 (DTP/NCI, 2004)
“And” between values parts separate entries of the source, which are not always exact repeats. Identical values can stand only once. Inconclusive results and toxic doses are left out. The calls were made as follows: active = survival T/C of 150% or more; inactive = T/C below 125% in these data.

Test system: P388 leukemia ip, CD2F1 mice, survival T/C
Test: NCI In Vivo Anticancer Drug Screen. Data for tumor model P388 Leukemia (intraperitoneal) in CD2F1 (CDF1) mice
Details: endpoint: median survival time, higher = longer survival
Summary of the method: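 Mice carrying the transplanted tumor received test compound or vehicle. Survival was recorded in each group, and the value is the treated-group measurement divided by that of the vehicle-treated control group.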

[1] = dose: 100.0 mg/kg/injection, schedule: Q01DX009 (ip), vehicle: saline with Tween-80
[2] = dose: 200.0 mg/kg/injection, schedule: Q01DX009 (ip), vehicle: saline with Tween-80
[3] = dose: 100.0 mg/kg/injection, schedule: Q01DX001 (ip), vehicle: saline with Tween-80
[4] = dose: 200.0 mg/kg/injection, schedule: Q01DX001 (ip), vehicle: saline with Tween-80
[5] = dose: 50.0 mg/kg/injection, schedule: Q01DX005 (ip), vehicle: Klucel (hydroxypropylcellulose) (HPC)
[6] = dose: 12.5 mg/kg/injection, schedule: Q01DX009 (ip), vehicle: saline with Tween-80
[7] = dose: 12.5 mg/kg/injection, schedule: Q01DX009 (ip), vehicle: saline
[8] = dose: 50.0 mg/kg/injection, schedule: Q01DX009 (ip), vehicle: saline with Tween-80

Measured: T/C

NNC(=O)SCCC(=O)O
inactive: dose: 50.0 mg/kg/injection, schedule: Q01DX005 (ip), vehicle: saline with Tween-80 97 % of control | dose: 100.0 mg/kg/injection, schedule: Q01DX005 (ip), vehicle: saline with Tween-80 97 % of control | dose: 200.0 mg/kg/injection, schedule: Q01DX005 (ip), vehicle: saline with Tween-80 101 % of control

OCCSc1c(Cl)c(Cl)c(Cl)c(Cl)c1Cl
inactive: [1] 106 % of control | [2] 113 % of control

CCOC(=O)c1nc(Cl)nc(Cl)c1I
inactive: dose: 3.13 mg/kg/injection, schedule: Q01DX009 (ip), vehicle: distilled water + Tween-80 99 % of control | dose: 6.25 mg/kg/injection, schedule: Q01DX009 (ip), vehicle: distilled water + Tween-80 110 % of control | dose: 12.5 mg/kg/injection, schedule: Q01DX009 (ip), vehicle: distilled water + Tween-80 112 % of control and 123 % of control | dose: 25.0 mg/kg/injection, schedule: Q01DX009 (ip), vehicle: distilled water + Tween-80 101 % of control and 112 % of control | dose: 50.0 mg/kg/injection, schedule: Q01DX009 (ip), vehicle: distilled water + Tween-80 90 % of control

NC1=NC(c2ccccc2Cl)CC(c2cc3ccccc3o2)=N1 (stereo not given)
inactive: [3] 92 % of control | [4] 89 % of control | dose: 400.0 mg/kg/injection, schedule: Q01DX001 (ip), vehicle: saline with Tween-80 100 % of control

CN(C)CCOC(c1ccccc1)c1ccccc1
inactive: dose: 25.0 mg/kg/injection, schedule: Q04DX003 (ip), vehicle: saline 100 % of control | dose: 50.0 mg/kg/injection, schedule: Q04DX003 (ip), vehicle: saline 100 % of control | dose: 100.0 mg/kg/injection, schedule: Q04DX003 (ip), vehicle: saline 108 % of control

CCOC(=O)c1c[nH]c2oc(/C=N/N3CC(CN4CCOCC4)OC3=O)cc2c1=O (stereo not given)
inactive: dose: 50.0 mg/kg/injection, schedule: Q01DX005 (ip), vehicle: acid diluted with saline 114 % of control | dose: 100.0 mg/kg/injection, schedule: Q01DX005 (ip), vehicle: acid diluted with saline 118 % of control | dose: 100.0 mg/kg/injection, schedule: Q04DX002 (ip), vehicle: saline 113 % of control

CCN=C=NCCCN(C)C
inactive: dose: 7.5 mg/kg/injection, schedule: Q01DX009 (ip), vehicle: saline 108 % of control | dose: 7.5 mg/kg/injection, schedule: Q04DX003 (ip), vehicle: saline 102 % of control | dose: 15.0 mg/kg/injection, schedule: Q01DX009 (ip), vehicle: saline 108 % of control | dose: 15.0 mg/kg/injection, schedule: Q04DX003 (ip), vehicle: saline 99 % of control | dose: 30.0 mg/kg/injection, schedule: Q01DX009 (ip), vehicle: saline 105 % of control | dose: 30.0 mg/kg/injection, schedule: Q04DX003 (ip), vehicle: saline 98 % of control | dose: 60.0 mg/kg/injection, schedule: Q01DX009 (ip), vehicle: saline 107 % of control

CC1C2Cc3ccc(O)cc3C1(C)CCN2CCC(=O)c1ccccc1 (stereo not given)
inactive: [5] 92 % of control | dose: 100.0 mg/kg/injection, schedule: Q01DX005 (ip), vehicle: Klucel (hydroxypropylcellulose) (HPC) 88 % of control | dose: 200.0 mg/kg/injection, schedule: Q01DX005 (ip), vehicle: Klucel (hydroxypropylcellulose) (HPC) 88 % of control

O=C=N[Si](c1ccccc1)(c1ccccc1)c1ccccc1
inactive: [3] 96 % of control | [4] 89 % of control

C=C(C)C(=NC(C)(C)C)N(C(C)C)C(C)C
inactive: dose: 12.5 mg/kg/injection, schedule: Q01DX005 (ip), vehicle: Klucel (hydroxypropylcellulose) (HPC) 102 % of control | [6] 89 % of control | [7] 102 % of control | dose: 25.0 mg/kg/injection, schedule: Q01DX005 (ip), vehicle: Klucel (hydroxypropylcellulose) (HPC) 96 % of control | dose: 25.0 mg/kg/injection, schedule: Q01DX009 (ip), vehicle: saline with Tween-80 97 % of control | dose: 25.0 mg/kg/injection, schedule: Q01DX009 (ip), vehicle: saline 101 % of control | [5] 98 % of control | [8] 100 % of control and 120 % of control | [1] 108 % of control

c1ccc(C2=NCC(c3ccccc3)(C3(c4ccccc4)SCCCS3)O2)cc1 (stereo not given)
inactive: dose: 100.0 mg/kg/injection, schedule: Q04DX003 (ip), vehicle: saline with Tween-80 95 % of control | dose: 200.0 mg/kg/injection, schedule: Q04DX003 (ip), vehicle: saline with Tween-80 97 % of control | dose: 400.0 mg/kg/injection, schedule: Q04DX003 (ip), vehicle: saline with Tween-80 91 % of control

CC(C1CC2(C)OC2(CO)C(=O)O1)C1CCC2C3CC4OC45C(O)C4OC4C(=O)C5(C)C3CCC12C (stereo not given)
inactive: dose: 5.0 mg/kg/injection, schedule: Q01DX005 (ip), vehicle: Klucel (hydroxypropylcellulose) (HPC) 96 % of control | dose: 10.0 mg/kg/injection, schedule: Q01DX005 (ip), vehicle: Klucel (hydroxypropylcellulose) (HPC) 100 % of control | dose: 20.0 mg/kg/injection, schedule: Q01DX005 (ip), vehicle: Klucel (hydroxypropylcellulose) (HPC) 96 % of control | dose: 40.0 mg/kg/injection, schedule: Q01DX005 (ip), vehicle: Klucel (hydroxypropylcellulose) (HPC) 92 % of control | dose: 80.0 mg/kg/injection, schedule: Q01DX005 (ip), vehicle: Klucel (hydroxypropylcellulose) (HPC) 89 % of control

O=C1OCCC12C(c1ccccc1)C1(CCOC1=O)C2c1ccccc1 (stereo not given)
inactive: dose: 1.87 mg/kg/injection, schedule: Q01DX005 (ip), vehicle: Klucel (hydroxypropylcellulose) (HPC) 94 % of control | dose: 3.75 mg/kg/injection, schedule: Q01DX005 (ip), vehicle: Klucel (hydroxypropylcellulose) (HPC) 94 % of control | dose: 7.5 mg/kg/injection, schedule: Q01DX005 (ip), vehicle: Klucel (hydroxypropylcellulose) (HPC) 86 % of control | dose: 60.0 mg/kg/injection, schedule: Q01DX005 (ip), vehicle: Klucel (hydroxypropylcellulose) (HPC) 86 % of control | dose: 240.0 mg/kg/injection, schedule: Q01DX005 (ip), vehicle: Klucel (hydroxypropylcellulose) (HPC) 94 % of control

C[N+]1(CSC(=O)c2ccccc2)CCCCC1
inactive: dose: 3.12 mg/kg/injection, schedule: Q01DX009 (ip), vehicle: saline 110 % of control | dose: 6.25 mg/kg/injection, schedule: Q01DX009 (ip), vehicle: saline 114 % of control | [6] 115 % of control and 91 % of control | [7] 107 % of control and 110 % of control | [8] 100 % of control and 116 % of control

CCN1C(N)=NS(=O)(=O)c2ccccc21
inactive: dose: 100.0 mg/kg/injection, schedule: Q04DX002 (ip), vehicle: saline with Tween-80 104 % of control | dose: 200.0 mg/kg/injection, schedule: Q04DX002 (ip), vehicle: saline with Tween-80 104 % of control | dose: 400.0 mg/kg/injection, schedule: Q04DX002 (ip), vehicle: saline with Tween-80 106 % of control

CC(C)(C)c1cc(OS(=O)(=O)C(F)(F)C(F)(F)C(F)(F)C(F)(F)F)cc(C(C)(C)C)c1
inactive: [8] 106 % of control | [1] 108 % of control | [2] 108 % of control

CN(C)P(c1ccccc1)N(C)C
inactive: dose: 50.0 mg/kg/injection, schedule: Q01DX009 (ip), vehicle: Klucel (hydroxypropylcellulose) (HPC) 106 % of control | dose: 100.0 mg/kg/injection, schedule: Q01DX009 (ip), vehicle: Klucel (hydroxypropylcellulose) (HPC) 102 % of control | dose: 200.0 mg/kg/injection, schedule: Q01DX009 (ip), vehicle: Klucel (hydroxypropylcellulose) (HPC) 107 % of control

Nc1ncnc2c1c(-c1ccccc1)cn2-c1ccccc1
inactive: dose: 60.0 mg/kg/injection, schedule: Q01DX005 (ip), vehicle: saline with Tween-80 103 % of control | dose: 120.0 mg/kg/injection, schedule: Q01DX005 (ip), vehicle: saline with Tween-80 104 % of control | dose: 240.0 mg/kg/injection, schedule: Q01DX005 (ip), vehicle: saline with Tween-80 98 % of control
